Assay results taken from patent publication US20240116898A1, “NOVEL GLUTAMINYL CYCLASE INHIBITORS AND THE USE THEREOF IN TREATMENT OF VARIOUS DISEASES” (LTD "VALENTA-INTELLEKT", priority 2017, published 2024).

Legend:
[1] = tested on: specific pain reaction by chemical irritation of the peritoneum in Balb/c mice; experiment: Abdominal constriction test (acetic acid) in mice; format: in vivo, mouse
Experimental: The model of the specific pain reaction by the method of chemical stimulation of peritoneum (“abdominal constriction” test) was carried out according to the standard procedure. To conduct the “abdominal constriction” test, Balb/c mice were intraperitoneally administered with 1% acetic acid in a volume of 10 ml per kg of the animal body weight. […] A quantity of constrictions (convulsive twitching of the abdominal muscles accompanied with stretching hind quarters and arching) was evaluated 15 minutes after the administration of acetic acid.

[2] = tested on: carrageenan-induced rat paw edema; experiment: Carrageenan-induced rat paw edema; format: in vivo; conditions: 8 mg/kg, 2 hours after carrageenan
Experimental: Experiments were performed on male white nonlinear rats weighing 250-270 g.

[3] = tested on: formaldehyde-induced pharyngitis in rats; experiment: Rat model of non-infectious pharyngitis (Evans blue exudation); format: in vivo
Experimental: The rats were anesthetized with sodium thiopentone (50 mg/kg, intraperitoneally) and a cannula with a RenaSil® silicone rubber tube (SIL 037, Braintree Scientific, Inc., Braintree, MA) was inserted into the external jugular vein using a heparinized saline solution (40 U/ml).
The Evans Blue dye (Evans Blue, EB) (30 mg/kg) was administered to all the animals intravenously through a catheter; 10 minutes after the EB dye was administered, a 30% formalin solution was applied to the surface of the pharyngeal mucosa as follows: the tongue was slightly pulled out, the pharyngeal area was opened deep in the mouth with blunt forceps and gently, using a sterile cotton pad, the formation solution (50 μl) was applied for 5 seconds each time it is applied. In the intact group thephysiologicla solution was used.
60 minutes after the application of 30% formalin solution, the animals were euthanized by the exsanguination. The head of each rat was perfused with the heparinized saline solution (40 U/ml) to remove the intravascular EB dye.
The degree of the inflammation was assessed by the exudation test of the Evans blue (EB) dye. […] The amount of dye in the fabric was calculated using the standard curve for the Evans blue dye, and was expressed in micrograms of the dye per gram of wet fabric weight (μg/g).
The formaldehyde solution with a concentration of 30% was adminstered to the control group.

[4] = tested on: thermal pain irritation hot plate in Balb/c mice; conditions: mouse, in vivo
Experimental: The model of thermal pain irritation “hot plate” was carried out according to the standard procedure [Barrot M. Tests and models of nociception and pain in rodents. […] After 1 hour after the administration of the preparation, the “hot plate” test was carried out. To conduct the “hot plate” test, the mice were placed on the hot plate, the temperature (+55±1° C.) of which is constant.
The time of first manifestations of the pain response in mice (paw licking, jumping) was registered and the mean latent time of the threshold of pain sensitivity (TPS, sec) in each group was calculated.

[5] = 0.3 mg/kg intragastric 1 hour before acetic acid

SMILES: O=C(c1ccccc1)c1ccc2n1CCC2C(=O)O (stereo not drawn) [Ketorol, reference compound]
- Quantity of constrictions for 15 minutes ([1]; 15 mg/kg): 23.60 ± 1.87

SMILES: O=C(O)Cc1ccccc1Nc1c(Cl)cccc1Cl [Diclofenac, reference compound]
- Inhibition of edema growth [2]: 42%
- Effect on pharyngitis inflammation (dye concentration) ([3]; 8 mg/kg): no effect
- The concentration of the dye in the tissue ([3]; 8 mg/kg intragastric 24 h and 1 h before formaldehyde): 0.112 ± 0.031 µg/mg

SMILES: O=C(NCCc1cnc[nH]1)C(=O)NCCc1cnc[nH]1 [Compound I, N,N′-bis[2-(1H-imidazol-4-yl)ethyl]oxalamide]
- Duration of the pharmacological effect [4]: at least 24 hours
- Decrease of the concentration of dye in the tissue compared to the control ([3]; 6 mg/kg): 2.8 times
- Decrease of the concentration of dye in the tissue compared to the control ([3]; 18 mg/kg): 6.4 times

SMILES: O=C(CCCCC(=O)NCCc1cnc[nH]1)NCCc1cnc[nH]1 [Compound VII, N,N′-bis[2-(1H-imidazol-4-yl)ethyl]adipamide]
- Quantity of constrictions for 15 minutes [1, 5]: 17.6 ± 2.81

SMILES: CC(C)(CC(=O)NCCc1cnc[nH]1)CC(=O)NCCc1cnc[nH]1 [Compound IX, N,N′-bis[2-(1H-imidazol-4-yl)ethyl]-3,3-dimethylpentanediamide]
- Quantity of constrictions for 15 minutes [1, 5]: 11.6 ± 3.5
